This is an account of results in ChEMBL document CHEMBL5291721, “A preclinical secondary pharmacology resource illuminates target-adverse drug reaction associations of marketed drugs” (Nat Commun, 2023).

For assay [1], the target named is Vascular endothelial growth factor receptor 2 (Homo sapiens, UniProt P35968). Format: functional.
The target of assay [2] is Gamma-aminobutyric acid receptor subunit alpha-1/alpha-2/beta-2/gamma-2 (Homo sapiens, UniProt P14867+P18507+P47869+P47870). In kind it is protein-complex assay.
Gamma-aminobutyric acid receptor subunit alpha-1/alpha-2/beta-2/gamma-2, sequence (P14867 whole entry): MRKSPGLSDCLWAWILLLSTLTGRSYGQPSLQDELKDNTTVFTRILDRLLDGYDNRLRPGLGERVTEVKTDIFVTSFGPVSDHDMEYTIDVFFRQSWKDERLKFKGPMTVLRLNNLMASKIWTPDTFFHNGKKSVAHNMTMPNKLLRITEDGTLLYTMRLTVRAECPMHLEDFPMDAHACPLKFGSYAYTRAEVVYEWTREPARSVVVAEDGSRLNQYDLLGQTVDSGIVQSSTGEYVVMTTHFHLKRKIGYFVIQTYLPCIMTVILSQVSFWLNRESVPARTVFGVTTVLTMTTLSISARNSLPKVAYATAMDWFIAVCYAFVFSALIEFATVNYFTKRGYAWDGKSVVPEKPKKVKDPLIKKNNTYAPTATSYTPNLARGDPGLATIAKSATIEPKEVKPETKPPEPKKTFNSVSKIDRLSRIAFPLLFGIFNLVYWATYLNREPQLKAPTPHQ
Gamma-aminobutyric acid receptor subunit alpha-1/alpha-2/beta-2/gamma-2, sequence (P47870 whole entry): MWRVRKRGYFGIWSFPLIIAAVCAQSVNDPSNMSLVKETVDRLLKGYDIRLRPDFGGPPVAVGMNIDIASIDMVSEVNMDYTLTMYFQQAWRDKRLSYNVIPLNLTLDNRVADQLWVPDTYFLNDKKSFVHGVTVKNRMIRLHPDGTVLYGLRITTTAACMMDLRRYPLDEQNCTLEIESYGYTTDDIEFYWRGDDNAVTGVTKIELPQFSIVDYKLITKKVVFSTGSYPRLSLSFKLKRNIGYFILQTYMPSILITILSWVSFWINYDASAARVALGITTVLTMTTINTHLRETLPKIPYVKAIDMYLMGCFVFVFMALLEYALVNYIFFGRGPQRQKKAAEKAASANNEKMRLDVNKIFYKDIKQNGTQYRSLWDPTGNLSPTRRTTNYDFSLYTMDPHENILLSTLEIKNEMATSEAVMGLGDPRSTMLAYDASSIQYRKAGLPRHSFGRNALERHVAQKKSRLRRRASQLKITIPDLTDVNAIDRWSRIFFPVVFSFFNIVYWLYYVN
Gamma-aminobutyric acid receptor subunit alpha-1/alpha-2/beta-2/gamma-2, sequence (P18507 whole entry): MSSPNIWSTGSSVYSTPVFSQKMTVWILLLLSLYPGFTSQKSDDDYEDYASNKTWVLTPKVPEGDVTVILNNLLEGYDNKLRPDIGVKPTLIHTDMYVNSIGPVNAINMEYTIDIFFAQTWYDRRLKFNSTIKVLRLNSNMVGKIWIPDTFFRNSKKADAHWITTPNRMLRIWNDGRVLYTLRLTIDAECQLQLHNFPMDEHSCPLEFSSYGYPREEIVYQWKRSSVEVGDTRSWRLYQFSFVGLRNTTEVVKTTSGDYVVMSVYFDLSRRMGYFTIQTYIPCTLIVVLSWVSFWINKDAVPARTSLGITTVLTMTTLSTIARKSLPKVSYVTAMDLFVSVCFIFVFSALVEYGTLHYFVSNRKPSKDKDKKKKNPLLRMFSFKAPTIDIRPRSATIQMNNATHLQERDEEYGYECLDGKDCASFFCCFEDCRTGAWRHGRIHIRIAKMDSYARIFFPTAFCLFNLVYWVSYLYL
Gamma-aminobutyric acid receptor subunit alpha-1/alpha-2/beta-2/gamma-2, sequence (P47869 whole entry): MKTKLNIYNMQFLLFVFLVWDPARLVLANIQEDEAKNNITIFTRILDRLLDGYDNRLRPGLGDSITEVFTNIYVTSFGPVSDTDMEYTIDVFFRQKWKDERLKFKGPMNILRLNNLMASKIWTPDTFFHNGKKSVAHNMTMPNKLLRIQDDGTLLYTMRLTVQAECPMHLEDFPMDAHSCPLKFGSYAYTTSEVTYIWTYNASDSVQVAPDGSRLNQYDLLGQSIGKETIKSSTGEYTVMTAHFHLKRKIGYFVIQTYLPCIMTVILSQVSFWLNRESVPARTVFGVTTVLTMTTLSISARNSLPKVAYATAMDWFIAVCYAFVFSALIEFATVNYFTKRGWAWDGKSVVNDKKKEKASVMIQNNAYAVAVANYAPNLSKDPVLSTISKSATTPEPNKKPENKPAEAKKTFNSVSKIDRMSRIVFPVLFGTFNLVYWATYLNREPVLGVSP
Assay [3] deals with cGMP-inhibited 3',5'-cyclic phosphodiesterase 3A (Homo sapiens, UniProt Q14432). In kind it is functional.
The target in assay [4] is Sodium-dependent dopamine transporter (Homo sapiens, UniProt Q01959).
Sodium-dependent dopamine transporter, sequence (Q01959 whole entry): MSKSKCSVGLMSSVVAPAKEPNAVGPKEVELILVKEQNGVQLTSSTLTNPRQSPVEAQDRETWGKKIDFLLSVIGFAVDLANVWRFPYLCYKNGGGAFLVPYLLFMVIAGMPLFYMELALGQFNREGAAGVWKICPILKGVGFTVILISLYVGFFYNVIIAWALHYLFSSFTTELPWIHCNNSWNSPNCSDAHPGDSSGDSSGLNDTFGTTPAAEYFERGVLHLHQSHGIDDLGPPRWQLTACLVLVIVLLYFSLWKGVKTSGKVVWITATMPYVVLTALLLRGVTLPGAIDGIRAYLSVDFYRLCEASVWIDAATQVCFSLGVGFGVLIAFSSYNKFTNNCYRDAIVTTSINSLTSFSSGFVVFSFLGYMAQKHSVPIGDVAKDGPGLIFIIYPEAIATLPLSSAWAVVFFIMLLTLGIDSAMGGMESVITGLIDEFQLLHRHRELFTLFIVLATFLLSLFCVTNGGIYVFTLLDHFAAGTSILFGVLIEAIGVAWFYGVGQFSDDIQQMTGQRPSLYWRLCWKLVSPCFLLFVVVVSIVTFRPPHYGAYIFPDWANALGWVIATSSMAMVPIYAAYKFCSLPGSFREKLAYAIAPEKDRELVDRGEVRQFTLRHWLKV
Assay [5] deals with 3',5'-cyclic-AMP phosphodiesterase 4D (Homo sapiens, UniProt Q08499). In kind it is functional.
In assay [6] the target is Histamine H3 receptor (Homo sapiens, UniProt Q9Y5N1).
Assay [7] deals with T1, Amine oxidase [flavin-containing] A (Homo sapiens, UniProt P21397).
T1 sequence (P21397 whole entry): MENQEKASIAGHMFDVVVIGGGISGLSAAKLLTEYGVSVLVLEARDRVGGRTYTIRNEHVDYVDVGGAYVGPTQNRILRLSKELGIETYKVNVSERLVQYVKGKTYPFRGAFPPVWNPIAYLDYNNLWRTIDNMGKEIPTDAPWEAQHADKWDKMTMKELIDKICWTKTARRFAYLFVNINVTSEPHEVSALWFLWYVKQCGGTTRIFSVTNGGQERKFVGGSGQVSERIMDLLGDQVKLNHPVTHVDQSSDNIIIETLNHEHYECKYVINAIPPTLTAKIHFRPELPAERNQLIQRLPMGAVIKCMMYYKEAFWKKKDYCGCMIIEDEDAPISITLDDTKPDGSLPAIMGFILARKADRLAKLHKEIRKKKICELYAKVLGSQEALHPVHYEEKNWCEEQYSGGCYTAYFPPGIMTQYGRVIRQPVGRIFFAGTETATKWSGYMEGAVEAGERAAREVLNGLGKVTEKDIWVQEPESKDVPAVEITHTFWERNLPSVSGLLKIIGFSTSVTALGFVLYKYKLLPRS
Format: functional.

Assay [8] has as its target Mu-type opioid receptor (Homo sapiens, UniProt P35372).
Assay [9] deals with Sodium-dependent noradrenaline transporter (Homo sapiens, UniProt P23975).
Sodium-dependent noradrenaline transporter, sequence (P23975 whole entry): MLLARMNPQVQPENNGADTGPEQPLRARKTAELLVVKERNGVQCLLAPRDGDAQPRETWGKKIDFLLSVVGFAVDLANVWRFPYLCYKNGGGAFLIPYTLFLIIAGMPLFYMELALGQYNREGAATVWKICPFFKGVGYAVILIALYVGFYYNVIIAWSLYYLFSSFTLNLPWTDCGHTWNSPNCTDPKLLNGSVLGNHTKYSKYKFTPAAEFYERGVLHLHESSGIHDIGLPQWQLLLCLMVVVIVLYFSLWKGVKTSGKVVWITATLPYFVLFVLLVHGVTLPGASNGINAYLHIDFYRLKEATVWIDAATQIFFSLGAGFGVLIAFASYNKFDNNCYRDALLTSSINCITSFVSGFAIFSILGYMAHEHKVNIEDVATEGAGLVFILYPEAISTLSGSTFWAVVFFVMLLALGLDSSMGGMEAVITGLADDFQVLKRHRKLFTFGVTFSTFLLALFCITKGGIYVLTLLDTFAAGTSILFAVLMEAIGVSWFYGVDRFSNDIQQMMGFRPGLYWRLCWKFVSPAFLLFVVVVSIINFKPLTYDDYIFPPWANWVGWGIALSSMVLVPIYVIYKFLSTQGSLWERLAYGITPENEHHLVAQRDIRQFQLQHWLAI
The target in assay [10] is T2, Beta-2 adrenergic receptor (Homo sapiens, UniProt P07550).
Assay [11] addresses Adenosine receptor A2a (Homo sapiens, UniProt P29274).
Assay [12] deals with Cannabinoid receptor 1 (Homo sapiens, UniProt P21554). Format: functional, cell-based.
Assay [13] concerns the target T2, Beta-2 adrenergic receptor. In kind it is functional, cell-based.
Assay [14] deals with T3, Alpha-1A adrenergic receptor (Homo sapiens, UniProt P35348).
T3 sequence (P35348 whole entry): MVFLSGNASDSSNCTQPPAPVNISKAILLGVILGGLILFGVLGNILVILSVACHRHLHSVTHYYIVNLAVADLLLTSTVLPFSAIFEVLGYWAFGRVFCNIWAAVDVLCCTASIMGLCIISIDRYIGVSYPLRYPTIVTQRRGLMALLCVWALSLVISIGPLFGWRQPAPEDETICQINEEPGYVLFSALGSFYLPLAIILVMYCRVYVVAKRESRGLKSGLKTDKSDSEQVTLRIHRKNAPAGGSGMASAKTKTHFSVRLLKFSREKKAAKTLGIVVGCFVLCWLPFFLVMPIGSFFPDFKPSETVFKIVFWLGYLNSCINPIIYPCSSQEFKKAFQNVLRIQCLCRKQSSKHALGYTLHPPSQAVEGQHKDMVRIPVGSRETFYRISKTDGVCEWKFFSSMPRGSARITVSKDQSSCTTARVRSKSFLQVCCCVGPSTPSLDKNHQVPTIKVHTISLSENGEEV
In kind it is functional, cell-based.

Assay [15] deals with Gamma-aminobutyric acid receptor subunit alpha-1 (Rattus norvegicus, UniProt P62813).
Gamma-aminobutyric acid receptor subunit alpha-1, sequence (P62813 whole entry): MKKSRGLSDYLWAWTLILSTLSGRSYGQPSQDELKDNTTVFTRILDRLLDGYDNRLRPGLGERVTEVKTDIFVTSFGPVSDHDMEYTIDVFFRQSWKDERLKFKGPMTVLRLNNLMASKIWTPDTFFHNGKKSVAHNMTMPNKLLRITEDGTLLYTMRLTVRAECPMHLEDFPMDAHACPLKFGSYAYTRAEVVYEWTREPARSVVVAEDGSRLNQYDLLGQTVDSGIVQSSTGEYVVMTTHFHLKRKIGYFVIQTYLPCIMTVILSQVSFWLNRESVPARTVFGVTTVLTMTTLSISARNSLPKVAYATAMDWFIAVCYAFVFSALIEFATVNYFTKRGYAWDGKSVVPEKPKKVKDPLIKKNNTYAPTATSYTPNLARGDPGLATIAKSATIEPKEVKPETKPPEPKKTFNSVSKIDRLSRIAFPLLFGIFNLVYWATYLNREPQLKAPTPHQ
Assay [16] deals with T4, Progesterone receptor (Homo sapiens, UniProt P06401).
T4 sequence (P06401 whole entry): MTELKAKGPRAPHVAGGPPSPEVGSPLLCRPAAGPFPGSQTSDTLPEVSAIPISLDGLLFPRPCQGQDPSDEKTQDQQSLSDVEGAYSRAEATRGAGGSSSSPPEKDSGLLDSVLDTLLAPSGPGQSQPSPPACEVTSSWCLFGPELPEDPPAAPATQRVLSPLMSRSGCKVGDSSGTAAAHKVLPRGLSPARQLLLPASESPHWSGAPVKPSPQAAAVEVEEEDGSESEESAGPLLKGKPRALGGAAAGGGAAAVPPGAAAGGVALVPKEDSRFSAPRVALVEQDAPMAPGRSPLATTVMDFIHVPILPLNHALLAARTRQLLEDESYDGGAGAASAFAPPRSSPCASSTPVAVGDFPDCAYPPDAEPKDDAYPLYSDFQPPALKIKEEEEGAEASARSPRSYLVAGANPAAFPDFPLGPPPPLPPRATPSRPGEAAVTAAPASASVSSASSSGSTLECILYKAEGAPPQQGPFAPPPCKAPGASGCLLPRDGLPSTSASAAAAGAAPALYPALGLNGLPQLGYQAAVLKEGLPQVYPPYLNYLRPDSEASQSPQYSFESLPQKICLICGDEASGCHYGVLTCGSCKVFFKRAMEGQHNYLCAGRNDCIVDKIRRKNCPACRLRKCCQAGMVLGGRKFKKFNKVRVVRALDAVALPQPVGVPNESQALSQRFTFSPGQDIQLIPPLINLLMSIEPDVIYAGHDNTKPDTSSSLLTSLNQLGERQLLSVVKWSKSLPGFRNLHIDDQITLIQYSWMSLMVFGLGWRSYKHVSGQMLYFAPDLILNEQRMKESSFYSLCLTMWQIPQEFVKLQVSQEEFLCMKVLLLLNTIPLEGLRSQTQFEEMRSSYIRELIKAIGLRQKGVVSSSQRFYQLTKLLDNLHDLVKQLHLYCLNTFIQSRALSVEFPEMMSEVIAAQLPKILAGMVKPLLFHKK
In kind it is functional.
Also: assay procedure not described here.

Vascular endothelial growth factor receptor 2, sequence (P35968 whole entry): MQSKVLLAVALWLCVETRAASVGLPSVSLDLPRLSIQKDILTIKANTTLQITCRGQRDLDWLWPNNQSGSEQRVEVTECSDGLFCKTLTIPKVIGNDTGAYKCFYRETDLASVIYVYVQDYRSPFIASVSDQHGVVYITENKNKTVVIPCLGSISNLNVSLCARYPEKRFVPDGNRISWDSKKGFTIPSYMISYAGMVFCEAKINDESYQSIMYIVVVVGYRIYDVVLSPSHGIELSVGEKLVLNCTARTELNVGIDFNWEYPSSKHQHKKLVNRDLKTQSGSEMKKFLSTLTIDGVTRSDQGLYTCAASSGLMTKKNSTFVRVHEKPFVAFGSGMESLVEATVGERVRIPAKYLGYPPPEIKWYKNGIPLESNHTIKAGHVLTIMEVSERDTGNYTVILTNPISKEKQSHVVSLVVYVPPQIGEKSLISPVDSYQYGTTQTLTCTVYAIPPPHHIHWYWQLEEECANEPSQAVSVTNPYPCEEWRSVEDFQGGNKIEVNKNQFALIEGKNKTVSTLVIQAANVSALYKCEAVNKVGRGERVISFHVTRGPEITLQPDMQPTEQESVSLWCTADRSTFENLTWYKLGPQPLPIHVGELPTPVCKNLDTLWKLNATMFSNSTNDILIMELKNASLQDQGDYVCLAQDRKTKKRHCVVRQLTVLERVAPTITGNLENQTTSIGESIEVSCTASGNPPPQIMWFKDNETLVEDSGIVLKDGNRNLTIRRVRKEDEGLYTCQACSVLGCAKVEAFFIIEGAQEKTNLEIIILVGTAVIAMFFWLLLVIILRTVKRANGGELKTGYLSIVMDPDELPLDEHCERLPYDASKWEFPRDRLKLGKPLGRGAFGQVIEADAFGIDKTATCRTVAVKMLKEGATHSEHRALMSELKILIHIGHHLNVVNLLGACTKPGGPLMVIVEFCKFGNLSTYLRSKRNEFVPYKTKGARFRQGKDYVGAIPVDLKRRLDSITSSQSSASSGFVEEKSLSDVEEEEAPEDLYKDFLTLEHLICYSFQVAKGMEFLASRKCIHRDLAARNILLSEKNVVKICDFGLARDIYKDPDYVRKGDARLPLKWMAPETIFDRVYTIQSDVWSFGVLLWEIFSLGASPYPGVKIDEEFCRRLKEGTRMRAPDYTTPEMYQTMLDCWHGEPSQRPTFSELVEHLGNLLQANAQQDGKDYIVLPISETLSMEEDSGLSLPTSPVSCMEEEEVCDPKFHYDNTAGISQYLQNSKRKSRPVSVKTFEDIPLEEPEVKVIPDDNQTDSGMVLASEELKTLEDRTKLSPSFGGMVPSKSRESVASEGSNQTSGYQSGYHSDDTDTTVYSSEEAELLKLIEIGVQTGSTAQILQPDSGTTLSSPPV

As for `CC(=O)OC(C)C[N+](C)(C)C` (configuration not stated) [METHACHOLINE], the AC50 in [1] and in assay [2] was above 30 µM in each case.

As to `O=C(Nc1ccccc1)OCC(CN1CCCCC1)OC(=O)Nc1ccccc1` (configuration not stated) [DIPERODON], the AC50 (commonly the concentration giving half of the maximal activity seen) in [3] is above 10 µM; in assay [4], 6.69 µM; in assay [5], above 10 µM; in [1] it was above 30 µM; in [6], above 10 µM; in assay [7], above 10 µM. The AC50 in [8] was 1.8 µM; in assay [9], 1.1 µM; in assay [10] it was above 10 µM; in assay [2] it was above 30 µM; in assay [11], above 30 µM; in [12] it was above 30 µM. Also, the AC50 in assay [13] and in assay [14] was above 30 µM each time.

Regarding `Oc1c(I)cc(I)c2cccnc12` [IODOQUINOL], the AC50 in assay [1] and in [2] was above 30 µM in each case.

Regarding `CC/C=C\C/C=C\C/C=C\C/C=C\C/C=C\CCCC(=O)O` [ICOSAPENT], the AC50 in assay [1] and in assay [2] was above 30 µM in each case.

Turning to `CN1CCN(C(c2ccccc2)c2ccccc2)CC1` [CYCLIZINE], the AC50 in [1] and in assay [2] was above 30 µM in each case.

`O=C1CCC(N2C(=O)c3ccccc3C2=O)C(=O)N1` (configuration not stated) [THALIDOMIDE]: the AC50 in assay [3] was above 30 µM; in assay [4], above 10 µM; in [5], above 30 µM; in [1] it was above 30 µM; in [6], above 10 µM; in assay [7] it was above 10 µM. In addition, the AC50 is above 30 µM in assay [8]; above 10 µM in assay [9]; above 10 µM in assay [10]; above 30 µM in assay [15]; above 30 µM in [11]; above 30 µM in assay [12]. Also, the AC50 in assay [13] and in assay [14] was above 30 µM each time.

Consider `CC(C(=O)O)c1ccc2c(c1)Cc1cccnc1O2` (configuration not stated) [PRANOPROFEN], for which the AC50 in [1] and in assay [2] was above 30 µM throughout.

For the compound `CN1CCC2=C(C1)c1ccccc1Cc1ccccc12` [SETIPTILINE], the half-maximal activity concentration (AC50) in assay [1] and in [2] was above 30 µM in each case.

For `Nc1nc(-n2cc(C(=O)O)c(=O)c3cc(F)c(N4CC(O)C4)c(Cl)c32)c(F)cc1F` [DELAFLOXACIN], the AC50 in assay [1], in [15] and in assay [2] was above 30 µM throughout.

With `Cc1c(O)cccc1C(=O)N[C@@H](CSc1ccccc1)[C@H](O)CN1C[C@H]2CCCC[C@H]2C[C@H]1C(=O)NC(C)(C)C`, the half-maximal activity concentration (AC50) in assay [1], in assay [15] and in [2] was above 30 µM throughout.

On to `C[C@@H]1C[C@H]2[C@@H]3CCC4=CC(=O)C=C[C@]4(C)[C@@]3(F)[C@@H](O)C[C@]2(C)[C@H]1C(=O)CO` [DESOXIMETASONE], for which the AC50 in assay [1] and in assay [2] was above 30 µM throughout.

With `C[C@@H]1C[C@H]2[C@@H]3C[C@H](F)C4=CC(=O)C=C[C@]4(C)[C@@]3(F)[C@@H](O)C[C@]2(C)[C@@]1(O)C(=O)COC(=O)C(C)(C)C` [FLUMETHASONE PIVALATE], the AC50 in [1] and in assay [2] was above 30 µM throughout.

Regarding `CS(=O)(=O)Nc1cc2occ(NC=O)c(=O)c2cc1Oc1ccccc1` [IGURATIMOD], the AC50 in assay [3] is above 30 µM; in [4], above 30 µM; in assay [5], 9.8 µM; in assay [1], above 10 µM; in [7] it was above 30 µM; in [16], above 30 µM. Further, the AC50 in [9] and in assay [2] was above 30 µM throughout.

Take `C[C@@H]1O[C@@H](OC[C@H]2O[C@@H](Oc3c(-c4ccc(OCCO)c(OCCO)c4)oc4cc(OCCO)cc(O)c4c3=O)[C@H](O)[C@@H](O)[C@@H]2O)[C@H](O)[C@H](O)[C@H]1O` [TROXERUTIN]: the AC50 in assay [1] and in [2] was above 30 µM in each case.

Take `COc1ccc(CCC(C)NCC(O)c2ccc(O)c([S+](C)[O-])c2)cc1` (configuration not stated) [SULFINALOL]: the AC50 in [1] and in assay [2] was above 30 µM each time.

With `CCCC1C(=O)N2C(N(C)C)=Nc3ccc(C)cc3N2C1=O` (configuration not stated) [APAZONE], the AC50 in [1] and in [2] was above 30 µM each time.

As for `COc1ccc2c(c1)OC(C)(C)C(c1ccccc1)C2c1ccc(OCCN2CCCC2)cc1` (configuration not stated) [ORMELOXIFENE], the AC50 in assay [1] was above 30 µM; in assay [2], above 10 µM.

As to `CCO[C@@H](Cc1ccc(OCCn2c(C)ccc2-c2ccc(SC)cc2)cc1)C(=O)O` [SAROGLITAZAR], the AC50 in assay [1] was above 30 µM; in assay [2] it was above 3 µM.

Turning to `CCOc1ccc(/C=C2\NCCc3cc(OCC)c(OCC)cc32)cc1OCC` [DROTAVERINE], the AC50 in [1] and in assay [2] was above 30 µM in each case.

With `CC(C)Cc1ccc(C(C)C(=O)NO)cc1` (configuration not stated) [IBUPROXAM], the AC50 in assay [1] and in assay [2] was above 30 µM each time.

As to `CC[C@@H]1/C=C(\C)C[C@H](C)C[C@H](OC)[C@H]2O[C@@](O)(C(=O)C(=O)N3CCCC[C@H]3C(=O)O[C@H](/C(C)=C/[C@@H]3CC[C@H](Cl)[C@H](OC)C3)[C@H](C)[C@@H](O)CC1=O)[C@H](C)C[C@@H]2OC` [PIMECROLIMUS], the AC50 was above 30 µM in [1] and above 10 µM in assay [2].

Consider `CN(Cc1cc(Br)cc(Br)c1N)C1CCCCC1` [BROMHEXINE], for which the AC50 in assay [1] and in assay [2] was above 30 µM throughout.

On to `CCN(CC)CCNc1ccc(C)c2sc3ccccc3c(=O)c12` [LUCANTHONE], for which the AC50 in [1] and in assay [2] was above 30 µM in each case.

Regarding `Oc1cccc2cccnc12` [OXYQUINOLINE], the AC50 in assay [1] and in [2] was above 30 µM each time.

In the case of `Nc1nc2c(ncn2CCC(CO)CO)c(=O)[nH]1` [PENCICLOVIR], the AC50 in [1] and in [2] was above 30 µM in each case.

As to `CC1=NN(c2ccccc2)C(=O)C1` [EDARAVONE], the AC50 in assay [1], in assay [15] and in assay [2] was above 30 µM throughout.

For `COc1ccc(-c2cc(=O)c3c(O)cc(O[C@@H]4O[C@H](CO[C@@H]5O[C@@H](C)[C@H](O)[C@@H](O)[C@H]5O)[C@@H](O)[C@H](O)[C@H]4O)cc3o2)cc1O` [DIOSMIN], the AC50 in assay [1] and in [2] was above 30 µM throughout.
